Measured values from ChEMBL document CHEMBL5331124, “Degradation of Hexokinase 2 Blocks Glycolysis and Induces GSDME-Dependent Pyroptosis to Amplify Immunogenic Cell Death for Breast Cancer Therapy” (J Med Chem, 2023).
pIC50: −log10 of the molar value. Activity calls are given as the source filed them. No cut-off for these calls is given here.

Assays:
4T1 [1] = test: Antitumor activity against mouse 4T1 cells xenografted in BALB/c mouse assessed as reduction in tumor growth at 50 mg/kg, ip measured after 23 days; assay type: functional, organism-based; conditions: time 23.0 day
[2] = Toxicity in BALB/c mouse implanted with mouse 4T1 cells assessed as effect on hemoglobin level at 50 mg/kg, ip measured after 25 days in presence of cisplatin by routine blood test; assay type: organism-based; conditions: in vivo, 600 h, time 25 day
MDA-MB-231 [3] = test: Antitumor activity against human MDA-MB-231 cells xenografted in BALB/c nude mouse assessed as increase in N-terminal GSDME level at 50 mg/kg, ip measured after 28 days; assay type: functional, organism-based; conditions: time 28.0 day
4T1 [4] = test: Upregulation of PD-L1 expression in mouse 4T1 cells cytoplasm at 20 uM measured for 36 hrs; assay type: functional, subcellular
4T1 [5] = test: Inhibition of glycolysis in mouse 4T1 cells assessed as reduction in oxygen consumption rate at 20 uM incubated for 1 to 4 hrs by seahorse analyzer method; assay type: functional, cell-based; conditions: time 1-4 hrs
[6] = biological target: T1, Protein cereblon/Hexokinase-2 (Mus musculus) (UniProt O08528+Q8C7D2); test: PROTAC activity at CRBN/HK2 in mouse 4T1 cells assessed as […] ternary complex formation at 10 uM incubated for 24 hrs; assay type: cell-based
MDA-MB-231 [7] = test: Antitumor immunity against human MDA-MB-231 cells xenografted in BALB/c nude mouse at 50 mg/kg, ip measured after 28 days; assay type: functional, organism-based; conditions: time 28.0 day
HGC-27 = test: Antiproliferative activity against human HGC-27 cells assessed as cell growth inhibition measured for 72 hrs by MTT assay; assay type: functional, cell-based; conditions: HGC-27, 72 h
4T1 [8] = test: Antitumor activity against mouse 4T1 cells implanted in BALB/c mouse assessed as reduction in HK2 proetin level […] at 50 mg/kg, ip measured after 25 days in presence of cisplatin by Western blot analysis; assay type: functional, organism-based; conditions: time 25.0 day
[9] = biological target: T1, Protein cereblon/Hexokinase-2 (Mus musculus); test: PROTAC activity at CRBN/HK2 in mouse 4T1 cells assessed as […] ternary complex formation at 10 uM incubated for 24 hrs in presence of MG132; assay type: cell-based
4T1 [10] = test: Induction of pyroptosis in mouse 4T1 cells assessed as increase in full length GSDME level at 20 uM incubated for 36 hrs; assay type: functional, cell-based
[11] = Cytotoxicity against human HUVEC-T1 cell assessed as inhibition of cell growth at 1 to 100 uM incubated for 48 hrs by CCK-8 assay; assay type: toxicity, cell-based; conditions: dose 1-100 µM
4T1 [12] = test: Antiproliferative activity against mouse 4T1 cells assessed as cell growth inhibition measured for 72 hrs by MTT assay; assay type: functional, cell-based; conditions: 4T1, 72 h
[13] = Toxicity in BALB/c mouse implanted with mouse 4T1 cells assessed as change in corpuscular hemoglobin concentration at 50 mg/kg, ip measured after 25 days by routine blood test; assay type: organism-based; conditions: in vivo, 600 h, time 25 day
4T1 [14] = test: Antitumor immunity against mouse 4T1 cells implanted in BALB/c mouse model assessed as increase in N-terminal GSDME expression in tumor; assay type: functional, cell-based
[15] = Toxicity in BALB/c mouse implanted with mouse 4T1 cells assessed as effect on hematocrit level at 50 mg/kg, ip measured after 25 days in presence of cisplatin by routine blood test; assay type: organism-based; conditions: in vivo, 600 h, time 25 day
[16] = Toxicity in BALB/c mouse implanted with mouse 4T1 cells assessed as pathological changes in heart at 50 mg/kg, ip measured after 25 days in presence of cisplatin by Hematoxylin -eosin staining based analysis; assay type: organism-based; conditions: in vivo, 600 h, time 25 day
4T1 [17] = test: Inhibition of glycolysis in mouse 4T1 cells assessed as reduction in extracellular acidification rate at 20 uM incubated for 1 to 4 hrs by seahorse analyzer method; assay type: functional, cell-based; conditions: time 1-4 hrs
[18] = Toxicity in BALB/c mouse implanted with mouse 4T1 cells assessed as pathological changes in liver at 50 mg/kg, ip measured after 25 days by Hematoxylin -eosin staining based analysis; assay type: organism-based; conditions: in vivo, 600 h, time 25 day
MDA-MB-231 [19] = test: Cytotoxicity against human MDA-MB-231 cells assessed as inhibition of cell growth at 1 to 100 uM incubated for 48 hrs by CCK-8 assay; assay type: functional, cell-based; conditions: dose 1-100 µM
[20] = Toxicity in BALB/c mouse implanted with mouse 4T1 cells assessed as pathological changes in spleen at 50 mg/kg, ip measured after 25 days in presence of cisplatin by Hematoxylin -eosin staining based analysis; assay type: organism-based; conditions: in vivo, 600 h, time 25 day
[21] = Toxicity in BALB/c nude mouse xenografted with human MDA-MB-231 cells assessed as effect on platelet count at 50 mg/kg, ip measured after 30 days by routine blood test; assay type: organism-based; conditions: in vivo, 720 h, time 30 day
[22] = biological target: T2, Hexokinase-2 (Mus musculus) (UniProt O08528); test: (§1) Induction of HK2 degradation in mouse 4T1 cells measured for 36 hrs; assay type: cell-based
T2 sequence (whole entry): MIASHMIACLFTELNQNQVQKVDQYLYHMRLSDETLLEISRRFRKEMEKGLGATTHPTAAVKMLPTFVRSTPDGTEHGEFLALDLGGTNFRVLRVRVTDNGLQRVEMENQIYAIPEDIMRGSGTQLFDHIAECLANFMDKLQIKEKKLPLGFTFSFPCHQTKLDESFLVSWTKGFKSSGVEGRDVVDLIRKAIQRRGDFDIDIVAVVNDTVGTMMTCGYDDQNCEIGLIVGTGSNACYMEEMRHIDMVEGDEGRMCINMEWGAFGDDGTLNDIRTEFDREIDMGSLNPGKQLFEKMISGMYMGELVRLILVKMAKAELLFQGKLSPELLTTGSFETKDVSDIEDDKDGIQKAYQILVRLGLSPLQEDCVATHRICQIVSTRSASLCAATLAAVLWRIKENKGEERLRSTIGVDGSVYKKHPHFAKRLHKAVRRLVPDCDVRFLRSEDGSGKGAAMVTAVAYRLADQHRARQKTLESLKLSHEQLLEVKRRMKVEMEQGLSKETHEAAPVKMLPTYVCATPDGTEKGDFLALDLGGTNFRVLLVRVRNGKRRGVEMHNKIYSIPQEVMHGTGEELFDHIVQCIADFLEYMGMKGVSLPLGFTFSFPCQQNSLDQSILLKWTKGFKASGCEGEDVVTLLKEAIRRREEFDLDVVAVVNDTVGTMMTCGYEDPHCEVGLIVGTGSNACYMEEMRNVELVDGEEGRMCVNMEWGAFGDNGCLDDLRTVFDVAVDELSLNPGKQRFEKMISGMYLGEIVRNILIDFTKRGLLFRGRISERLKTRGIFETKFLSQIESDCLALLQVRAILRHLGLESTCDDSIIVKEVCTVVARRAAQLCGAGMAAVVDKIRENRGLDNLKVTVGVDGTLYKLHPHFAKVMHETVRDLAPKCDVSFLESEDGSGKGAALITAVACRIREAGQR

Hexokinase-2 = biological target: T3, Hexokinase-2 (Mus musculus, UniProt O08528); test: as §1; assay type: cell-based
T3 sequence (O08528 whole entry): T2 sequence (whole entry)

[23] = biological target: Protein cereblon/Hexokinase-2 (Homo sapiens) (UniProt P52789+Q96SW2); test: PROTAC activity at CRBN/HK2 in human MDA-MB-231 cells assessed as […] ternary complex formation at 10 uM incubated for 24 hrs; assay type: cell-based
[24] = Toxicity in BALB/c mouse implanted with mouse 4T1 cells assessed as pathological changes in liver at 50 mg/kg, ip measured after 25 days in presence of cisplatin by Hematoxylin -eosin staining based analysis; assay type: organism-based; conditions: in vivo, 600 h, time 25 day

T1 sequence (Q8C7D2 whole entry, looked up, one chain of several): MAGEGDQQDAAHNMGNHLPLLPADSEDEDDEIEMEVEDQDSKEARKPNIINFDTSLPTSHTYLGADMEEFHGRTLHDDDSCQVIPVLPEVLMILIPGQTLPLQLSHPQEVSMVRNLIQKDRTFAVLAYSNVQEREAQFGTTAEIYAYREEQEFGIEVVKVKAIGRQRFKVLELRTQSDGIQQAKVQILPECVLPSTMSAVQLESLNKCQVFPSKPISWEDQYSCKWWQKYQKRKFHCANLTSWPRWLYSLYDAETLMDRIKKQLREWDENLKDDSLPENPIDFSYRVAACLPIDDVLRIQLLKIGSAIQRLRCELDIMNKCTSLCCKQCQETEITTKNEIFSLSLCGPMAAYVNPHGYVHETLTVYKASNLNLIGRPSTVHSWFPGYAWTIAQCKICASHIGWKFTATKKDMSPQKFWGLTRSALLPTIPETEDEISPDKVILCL
Protein cereblon/Hexokinase-2 (Homo sapiens), sequence (P52789 whole entry, looked up): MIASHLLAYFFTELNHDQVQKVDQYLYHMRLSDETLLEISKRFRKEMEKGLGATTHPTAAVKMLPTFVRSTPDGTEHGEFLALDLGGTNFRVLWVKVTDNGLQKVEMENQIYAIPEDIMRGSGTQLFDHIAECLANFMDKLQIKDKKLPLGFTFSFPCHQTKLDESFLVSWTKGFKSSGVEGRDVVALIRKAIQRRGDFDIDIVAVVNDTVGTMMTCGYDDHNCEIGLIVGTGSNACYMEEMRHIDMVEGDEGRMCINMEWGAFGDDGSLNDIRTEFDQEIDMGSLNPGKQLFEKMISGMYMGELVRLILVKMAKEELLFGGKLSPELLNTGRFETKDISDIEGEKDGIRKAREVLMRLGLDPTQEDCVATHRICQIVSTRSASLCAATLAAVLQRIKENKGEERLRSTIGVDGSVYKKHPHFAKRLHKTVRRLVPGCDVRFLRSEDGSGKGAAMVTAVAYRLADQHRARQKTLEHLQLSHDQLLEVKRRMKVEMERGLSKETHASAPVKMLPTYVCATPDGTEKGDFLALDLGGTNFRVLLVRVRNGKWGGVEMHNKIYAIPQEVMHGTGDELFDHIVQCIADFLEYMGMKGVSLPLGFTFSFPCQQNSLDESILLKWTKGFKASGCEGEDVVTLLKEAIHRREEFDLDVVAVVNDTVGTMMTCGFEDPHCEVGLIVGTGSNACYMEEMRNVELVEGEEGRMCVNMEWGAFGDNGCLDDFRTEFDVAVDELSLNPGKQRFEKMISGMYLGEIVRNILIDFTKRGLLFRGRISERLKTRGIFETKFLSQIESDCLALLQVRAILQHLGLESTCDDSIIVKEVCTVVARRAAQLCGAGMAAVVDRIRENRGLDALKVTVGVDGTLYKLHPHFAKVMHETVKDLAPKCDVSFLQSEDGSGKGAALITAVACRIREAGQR
Protein cereblon/Hexokinase-2 (Homo sapiens), sequence (Q96SW2 whole entry, looked up): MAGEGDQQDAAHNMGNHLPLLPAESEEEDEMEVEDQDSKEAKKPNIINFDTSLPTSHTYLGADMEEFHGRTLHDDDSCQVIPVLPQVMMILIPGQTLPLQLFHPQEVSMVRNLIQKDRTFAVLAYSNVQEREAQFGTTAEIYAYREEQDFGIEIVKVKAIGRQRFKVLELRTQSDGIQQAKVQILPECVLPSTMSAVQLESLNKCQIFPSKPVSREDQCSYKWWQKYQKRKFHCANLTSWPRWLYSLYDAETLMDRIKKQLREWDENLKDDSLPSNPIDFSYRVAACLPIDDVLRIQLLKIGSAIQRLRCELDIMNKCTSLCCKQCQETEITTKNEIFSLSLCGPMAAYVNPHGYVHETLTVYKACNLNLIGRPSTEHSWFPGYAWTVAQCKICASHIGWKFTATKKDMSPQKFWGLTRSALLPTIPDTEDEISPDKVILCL

With `O=C1CCC(N2C(=O)c3cccc(NCCCCNC(=O)c4nn(Cc5ccc(Cl)cc5Cl)c5ccccc45)c3C2=O)C(=O)N1` (stereo unspecified) the Activity (4T1 [1]) was “Active”, the Activity [2] was “Non-Toxic” and the Activity (MDA-MB-231 [3]) was “Active”. The Activity (4T1 [4]) was “Active”, the inhibition (4T1 [5]) was “Active” and the Activity [6] was “Active”. The Activity (MDA-MB-231 [7]) was “inactive”, the pIC50 (HGC-27) was 5.21 and the Activity (4T1 [8]) was “Active”. For the same compound, the Activity [9] was “inactive”, the Activity (4T1 [10]) was “Active” and the Activity [11] was “Toxic”. For the same compound, the pIC50 (4T1 [12]) was 5.29, the Activity [13] was “Non-Toxic” and the Activity (4T1 [14]) was “Active”. For the same compound, the Activity [15] was “Non-Toxic”, the Activity [16] was “Non-Toxic” and the inhibition (4T1 [17]) was “Active”. The Activity [18] was “Non-Toxic”, the Activity (MDA-MB-231 [19]) was “Active” and the Activity [20] was “Non-Toxic”. The Activity [21] was “Non-Toxic”, the Activity [22] was “Dose-Dependent Effect” and the DC50 (Hexokinase-2) was 2.56 µM. The Activity [23] was “Active” and the Activity [24] was “Non-Toxic”.
